# Marks after values point to notes of the source that are not given here. Non-standard residues stand in square brackets, D forms with d. Residues, ends and D or L forms follow the SMILES beside them.
# Experiments:
# [1] = tested on: vancomycin-resistant Enterococus faecalis (VRE)(ATCC 51575); type: cell-based, Enterococcus faecalis; set-up: key to VRE (in vitro activity): peptide concentration in μg/ml (broth dilution assay)
# In short: (§1)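 First, peptide stocks in 5% DMSO/9% sucrose were quantified and diluted 2-fold over roughly 400-2 μg/ml. Next, overnight cultures were diluted 4000-fold to ~2.5×10^5 cfu/ml and combined with peptide. Minimum inhibitory concentrations followed NCCLS broth macro- or microdilution procedures.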
# [2] = Cytotoxicity to M21 melanoma cells; type: cell-based; settings: human, read-out: M21 (melanoma) LD50
# [3] = tested on: Streptococcus pneumoniea erythromycin- and ampicillin-resistant clinical isolate; type: cell-based, Streptococcus pneumoniae; settings: data from MDS Panlabs
# Procedure: (§2) The antimicrobial activity of the peptides was determined using a broth dilution assay essentially as descried in the guidelines of the National Committee for […] (NCCLS) [National Committee for Clinical Laboratory Standards. Methods for dilution antimicrobial susceptibility tests for bacteria that grow aerobically. Fourth edition. Approved Standard (1997). Document M7-A4. […] The microdilution method has the advantages of requiring less amount of peptide for each assay and the possibility of multiple simultaneous inoculations and was used in most studies. Several of the strains of bacteria tested are further described in Table 3.
# [4] = tested on: Listeria monocytogenes ATCC19115; assay: MIC, Listeria monocytogenes; type: cell-based
# Procedure: as §2
# (§3) Preparation of peptide solutions. Stock peptide solutions were prepared in 5% DMSO in aq. sucrose (9%). Determination of peptide concentrations was done by quantitative HPLC analysis using known concentrations of internal standards and/or by measuring UV absorption of tryptophane-containing peptide solutions in H2O (λ=280 εTrp: 5690). Serial 2-fold dilutions were made in the above DMSO/aq. sucrose (9%) mixture with concentrations ranging approximately 400-2 μg/ml and aliquots were dispensed in test tubes (100 μl) for the macrodilution test or in microtiter plates (20 μl) for the microdilution assays.
# (§4) Inoculum preparation. […]
# [5] = tested on: Streptococcus pneumoniae (ATCC 6301); type: cell-based
# In short: as §1
# [6] = tested on: Bacillus cereus ATCC 11778; type: cell-based
# In short: as §1
# [7] = tested on: Staphylococcus aureus ATCC25923; assay: MIC, Staphylococcus aureus ATCC25923; type: cell-based; settings: data from MDS Panlabs Pharmacology Services
# Procedure: as §2
# [8] = tested on: S. aureus (MRSA) ATCC 33591; type: cell-based, Staphylococcus aureus
# In short: as §1
# [9] = tested on: Enterococcus faecalis vancomycin-resistant clinical isolate; type: cell-based; settings: data from MDS Panlabs
# Procedure: as §2
# [10] = tested on: murine red blood cells; assay: Red blood cell hemolysis; type: cell-based, mouse
# In short: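 Washed murine erythrocytes at 5% in saline with 10% FBS were exposed to serial peptide dilutions for 30 min at 37° C. Supernatant absorbance at 560 nm was read, with saline as 0% and 1% Triton X-100 as 100% hemolysis.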
# [11] = tested on: E. coli JM109(DE3); type: cell-based, Escherichia coli; settings: JM109
# In short: as §1
# [12] = tested on: Bacillus subtilis ATCC 43223; assay: MIC, Bacillus subtilis; type: cell-based; settings: data from MDS Panlabs Pharmacology Services
# Procedure: as §2
# [13] = tested on: Salmonella typhimurium ATCC 14028; assay: MIC, Salmonella typhimurium; type: cell-based
# Procedure: as §2, §3, §4
structure (smiles),measurement,setting,value
"CC(C)C[C@@H]1NC(=O)[C@@H](Cc2c[nH]c3ccccc23)NC(=O)[C@H](CCCNC(=N)N)NC(=O)[C@@H](CCC(N)=O)NC(=O)[C@H](CCCCN)NC(=O)[C@@H](Cc2c[nH]c3ccccc23)NC(=O)[C@H](CC(C)C)NC(=O)[C@@H](Cc2c[nH]c3ccccc23)NC1=O [SEQ ID NO:9, cyclo-[Lys-D-Gln-Arg-D-Trp-Leu-D-Trp-Leu-D-Trp]] (cyclo(K[dQ]R[dW]L[dW]L[dW]))",VRE MIC,[1]; ATCC 51575,12 µg/mL
same,VRE (in vitro activity),"[1]; Table 9, media a: AM-3",12
same,CC50,[2],> 75 µg/mL
same,MIC Streptococcus pneumoniea,[3],10^b μg/ml
same,MIC Listeria monocytogenes,[4],20 µg/mL
same,S. pneum. MIC,[5],4 µg/mL
same,B. cerius MIC,[6],3 µg/mL
same,MIC Bacillus cereus,[6],2 µg/mL
same,MIC Staphylococcus aureus,[7],3^b μg/ml
same,MRSA MIC,[8]; ATCC 33591,12 µg/mL
same,S. aureus (MRSA) MIC,[8]; ATCC 33591,8 µg/mL
same,MRSA (in vitro activity),"[8]; Table 9, media a: anti-microbial media-3 (AM-3)",12
same,MIC Enterococcus faecalis,[9],10^b μg/ml
same,RBC Hemolysis (HD50),[10],40
same,Red blood cell (mouse) HD50,[10],45^j μg/ml
same,E. coli MIC,[11],80 µg/mL
same,MIC Bacillus subtilis,[12],3^b μg/ml
same,MIC Salmonella typhimurium,[13],>70 µg/mL
